The supplement of paper PMC10307832

Tests used:
Assay in all cases: relative viability (nuclei count vs DMSO), 5 days (fraction); higher = more cells survive
[1] = compound: COC1=CC(c2cc3ccccc3[nH]2)=N/C1=C\c1[nH]c(C)cc1C [Obatoclax] + Cc1cc(Nc2cc(N3CCN(C)CC3)nc(Sc3ccc(NC(=O)C4CC4)cc3)n2)n[nH]1 [Tozasertib] (partner 0.1 µM)
Method in brief: (§1)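 One day after seeding in 1536-well plates, lung cancer cell lines were dosed by pin tool. Dosing was either single-drug or a fixed anchor-drug dose plus five library-drug doses (not always all listed) in √10 steps. After 5 days, nuclei were stained in one fix-and-stain step and counted on 4× images, and relative viability is the nuclei count of treated wells over that of vehicle wells, given as the median of duplicate plates.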

[2] = compound: CC(C)C[C@H](NC(=O)[C@H](Cc1ccccc1)NC(=O)c1cnccn1)B(O)O [Bortezomib] + CS(=O)(=O)N1CCN(Cc2cc3nc(-c4cccc5[nH]ncc45)nc(N4CCOCC4)c3s2)CC1 [Pictilisib] (partner 1 µM)
Method in brief: as §1

[3] = compound: COC1=CC(c2cc3ccccc3[nH]2)=N/C1=C\c1[nH]c(C)cc1C [Obatoclax] + CCNC(=O)c1noc(-c2cc(C(C)C)c(O)cc2O)c1-c1ccc(CN2CCOCC2)cc1 [Luminespib] (partner 0.01 µM)
Method in brief: as §1

[4] = compound: COC1=CC(c2cc3ccccc3[nH]2)=N/C1=C\c1[nH]c(C)cc1C [Obatoclax] + CC(=O)Nc1cccc(-n2c(=O)n(C3CC3)c(=O)c3c(Nc4ccc(I)cc4F)n(C)c(=O)c(C)c32)c1 [Trametinib] (partner 0.02 µM)
Method in brief: as §1

[5] = compound: COC1=CC(c2cc3ccccc3[nH]2)=N/C1=C\c1[nH]c(C)cc1C [Obatoclax] + Nc1ncn([C@H]2C[C@H](O)[C@@H](CO)O2)c(=O)n1 [Decitabine] (partner 2 µM)
Method in brief: as §1

Work on NCI-H650 yielded a relative viability ([1]; first compound 0.01 µM) of 0.732, a relative viability ([1]; first compound 0.03162 µM) of 0.779 and a relative viability ([1]; first compound 0.3162 µM) of 0.631. It also gave a relative viability ([1]; first compound 1 µM) of 0.309, a relative viability ([2]; first compound 0.000632 µM) of 0.695 and a relative viability ([2]; first compound 0.002 µM) of 0.551. The relative viability ([2]; first compound 0.006325 µM) was 0.328, the relative viability ([2]; first compound 0.02 µM) was 0.205 and the relative viability ([3]; first compound 0.01 µM) was 0.712. It also gave a relative viability ([3]; first compound 0.03162 µM) of 0.802, a relative viability ([3]; first compound 0.3162 µM) of 0.44 and a relative viability ([3]; first compound 1 µM) of 0.305. The relative viability ([4]; first compound 0.01 µM) was 0.888, the relative viability ([4]; first compound 0.03162 µM) was 1.02 and the relative viability ([4]; first compound 0.3162 µM) was 0.373. It also gave a relative viability ([4]; first compound 1 µM) of 0.625, a relative viability ([5]; first compound 0.01 µM) of 0.299 and a relative viability ([5]; first compound 0.03162 µM) of 0.312. The relative viability ([5]; first compound 0.3162 µM) was 0.237 and the relative viability ([5]; first compound 1 µM) was 0.217.
